# Test results as given in patent publication US9546162B2, “Compounds and methods for skin repair” (Allergan, Inc., priority 2013, dated 2017).
# Where two headings read alike, the source gives them in different places.
# What was measured:
# [1] = target: T1, EP4 (Homo sapiens (Human), UniProt P35408); assay: EP4 cAMP EC50; assay type: cell-based
# [2] = target: T2, EP2 (Homo sapiens (Human), UniProt P43116); assay: EP2 competition binding (Ki), [3H]PGE2; settings: EP2, HEK 293 cells
# Protocol: Competition binding experiments were performed in a medium containing Hank's balanced salt solution, Hepes 20 mM, pH 7.3, membranes (˜60 μg protein) or 2×10^5 cells from HEK 293 cells stably expressing human EP2 receptors, [^3H]PGE2 (10 nM) and various concentrations of test compounds in a total volume of 300 μl. Reaction mixtures were incubated at 23° C. for 60 min, and were filtered over Whatman GF/B filters under vacuum. Filters were washed three times with 5 ml ice-cold buffer containing 50 mM Tris/HCl (pH 7.3). Non-specific binding was estimated in the presence of excess unlabeled PGE2 (10 μM). Binding data fitted to the binding model for a single class of binding sites, using nonlinear regression analysis.
# (§1) HEK-293 cells stably expressing the human or feline FP receptor, or EP1, EP2, or EP4 receptors were washed with TME buffer, scraped from the bottom of the flasks, and homogenized for 30 sec using a Brinkman PT 10/35 polytron. TME buffer was added to achieve a final 40 ml volume in the centrifuge tubes (the composition of TME is 100 mM TRIS base, 20 mM MgCl2, […]; 10N HCl is added to achieve a pH of 7.4).
# (§2) The cell homogenate was centrifuged at 19000 r.p.m. for 20 min at 4° C. using a Beckman Ti-60 rotor. The resultant pellet was resuspended in TME buffer to give a final 1 mg/ml protein concentration, as determined by Biorad assay. Radioligand binding competition assays vs. [^3H-]17-phenyl PGF2a (5 nM) were performed in a 100 μl volume for 60 min. Binding reactions were started by adding plasma membrane fraction. The reaction was terminated by the addition of 4 ml ice-cold TRIS-HCl buffer and rapid filtration through glass fiber GF/B filters using a Brandel cell harvester. The filters were washed 3 times with ice-cold buffer and oven dried for one hour.
# (§3) [^3H—] PGE2 (specific activity 180 Ci mmol) was used as the radioligand for EP receptors. [^3H] 17-phenyl PGF2a was employed for FP receptor binding studies. Binding studies employing EP1, EP2, EP4 and FP receptors were performed in duplicate in at least three separate experiments. A 200 μl assay volume was used. Incubations were for 60 min at 25° C. and were terminated by the addition of 4 ml of ice-cold 50 mM TRIS-HCl, followed by rapid filtration through Whatman GF/B filters and three additional 4 ml washes in a cell harvester (Brandel). Competition studies were performed using a final concentration of 5 nM [^3H]-PGE2, or 5 nM [^3H] 17-phenyl PGF2a and non-specific binding determined with 10^−5M of unlabeled PGE2, or 17-phenyl PGF2a, according to receptor subtype studied.
# [3] = target: T1, EP4; assay: EP4 radioligand binding (Ki), [3H]PGE2; settings: EP4, HEK-293 membranes
# Protocol: as §1, §2, §3
# [4] = target: T2, EP2; assay: EP2 cAMP EC50; assay type: cell-based
# T1 sequence (P35408 whole entry): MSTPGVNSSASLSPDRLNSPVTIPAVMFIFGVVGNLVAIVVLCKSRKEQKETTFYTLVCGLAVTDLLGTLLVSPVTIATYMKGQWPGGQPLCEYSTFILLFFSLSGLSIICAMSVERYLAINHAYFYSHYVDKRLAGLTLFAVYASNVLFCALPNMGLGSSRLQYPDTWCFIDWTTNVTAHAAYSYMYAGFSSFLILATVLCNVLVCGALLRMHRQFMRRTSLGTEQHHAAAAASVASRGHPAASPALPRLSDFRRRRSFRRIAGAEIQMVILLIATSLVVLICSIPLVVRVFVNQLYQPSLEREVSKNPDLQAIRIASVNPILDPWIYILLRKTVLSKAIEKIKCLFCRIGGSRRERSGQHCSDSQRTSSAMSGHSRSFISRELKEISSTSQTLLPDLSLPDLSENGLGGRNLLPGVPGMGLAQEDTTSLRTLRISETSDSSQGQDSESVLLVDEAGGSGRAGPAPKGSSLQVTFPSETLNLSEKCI
# T2 sequence (P43116 whole entry): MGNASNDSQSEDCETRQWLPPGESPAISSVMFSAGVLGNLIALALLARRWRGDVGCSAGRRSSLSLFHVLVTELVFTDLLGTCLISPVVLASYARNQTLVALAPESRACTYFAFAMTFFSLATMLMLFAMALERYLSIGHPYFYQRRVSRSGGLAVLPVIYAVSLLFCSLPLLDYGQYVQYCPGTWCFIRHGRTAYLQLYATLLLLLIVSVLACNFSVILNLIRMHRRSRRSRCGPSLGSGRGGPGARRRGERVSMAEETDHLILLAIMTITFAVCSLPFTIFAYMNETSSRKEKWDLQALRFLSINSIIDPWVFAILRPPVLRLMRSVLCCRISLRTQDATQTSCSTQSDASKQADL
EP4 cAMP EC50 [1],EP2 Ki [2],EP4 Ki ([3]; read-out: EP4 Ki EC50),EC50 [1],Ki [2],EC50 [4],EP4 Ki [3],Compound
> 10 µM,> 10 µM,4470 nM,–,–,–,–,COc1cc(CC2=CCc3cccc(-c4ccc(OCC(=O)O)cc4)c32)cc(OC)c1 [Entry 23]
–,–,0.4 nM,2 nM,18 nM,36 nM,–,COc1cc(CC2=CCc3cc(F)cc(CCc4ccc(C(=O)O)cc4)c32)cc(OC)c1 [Entry 19]
–,–,5850 nM,–,–,–,–,O=C(O)c1ccc(CCc2cccc3c2N(Cc2cc(OCc4ccccc4)cc(OCc4ccccc4)c2)CC3)cc1 [Entry 7]
> 10 µM,> 10 µM,3600 nM,–,–,–,–,COc1cc(CC2=CCc3cccc(C#Cc4ccc(C(=O)O)cc4)c32)cc(OC)c1 [Entry 24]
–,> 10 µM,1230 nM,–,–,–,–,COc1cc(CC2=CCc3cccc(-c4cccc(/C=C/C(=O)O)c4)c32)cc(OC)c1 [Entry 20]
–,–,34 nM,33 nM,20 nM,161 nM,–,COc1ccc(CC2=CCc3cccc(CCc4ccc(C(=O)O)cc4)c32)cc1OC [Entry 7]
–,–,42 nM,7 nM,95 nM,28 nM,–,COc1cc(/C=C2\CCc3cccc(CCc4ccc(C(=O)O)cc4)c32)cc(OC)c1 [Entry 2]
> 10 µM,–,1200 nM,–,4770 nM,–,–,COc1cc(CC2=CCc3cccc(/C=C/c4ccc(C(=O)O)cc4)c32)cc(OC)c1 [Entry 21]
–,–,0.8 nM,1 nM,3 nM,11 nM,–,COc1cc(CC2=CCc3cccc(CCc4ccc(C(=O)O)cc4)c32)cc(OC)c1 [Entry 15]
–,–,240 nM,220 nM,6 nM,13 nM,–,Cc1cc(C)cc(CC2=CCc3cccc(CCc4ccc(C(=O)O)cc4)c32)c1 [Entry 11]
> 10 µM,–,8230 nM,–,776 nM,–,–,COc1cc(OC)cc(S(=O)(=O)N2CCc3cccc(CCc4ccc(C(=O)O)cc4)c32)c1 [Entry 19]
–,> 10 µM,1170 nM,–,–,–,–,COc1cc(CC2=CCc3cccc(-c4cccc(OCC(=O)O)c4)c32)cc(OC)c1 [Entry 22]
–,–,174 nM,–,–,–,–,O=C(O)c1ccc(CCc2cccc3c2N(Cc2ccc4ccccc4c2)CC3)cc1 [Entry 6]
–,–,71 nM,107 nM,67 nM,57 nM,–,COc1ccccc1CC1=CCc2cccc(CCc3ccc(C(=O)O)cc3)c21 [Entry 8]
–,–,3 nM,7.2 nM,2 nM,–,–,COc1cc(CC2CCc3cccc(CCc4ccc(C(=O)O)cc4)c32)cc(OC)c1 (stereo not shown) [Entry 1]
–,–,469 nM,–,1700 nM,–,–,COc1cc(CC2=CCc3ccc(OC)c(CCc4ccc(C(=O)O)cc4)c32)cc(OC)c1 [Entry 16]
–,–,736 nM,296 nM,8 nM,–,–,O=C(O)c1ccc(CCc2cccc3c2C(Cc2cc(C(F)(F)F)cc(C(F)(F)F)c2)=CC3)cc1 [Entry 17]

EP4 cAMP EC50 [1],EP2 Ki [2],EP4 Ki ([3]; read-out: EP4 Ki EC50),EC50 [1],Ki [2],EC50 [4],EP4 Ki [3],Compound
–,–,161 nM,–,47 nM,–,–,COc1cc(CN2CCc3cccc(CCc4ccc(C(=O)O)s4)c32)cc(OC)c1 [Entry 13]
–,–,52 nM,41 nM,83 nM,25 nM,–,COc1cc(CC2=CCc3c(F)ccc(CCc4ccc(C(=O)O)cc4)c32)cc(OC)c1 [Entry 12]
> 10 µM,–,–,–,–,–,> 10000 nM,COc1cccc(CCN2Cc3cccc(CCc4ccc(C(=O)O)cc4)c3C2)c1 [Entry 10]
> 10 µM,–,–,–,–,–,–,COc1cccc(CN2Cc3cccc(CCc4ccc(C(=O)O)cc4)c3C2)c1 [Entry 11]
–,–,52 nM,71 nM,61 nM,–,–,COc1ccc(OC)c(CC2=CCc3cccc(CCc4ccc(C(=O)O)cc4)c32)c1 [Entry 4]
–,–,453 nM,–,–,–,–,O=C(O)c1ccc(CCc2cccc3c2N(Cc2ccc4c(c2)OCO4)CC3)cc1 [Entry 8]
> 10 µM,> 10 µM,1490 nM,–,–,–,–,COc1cc(/C=C2\CCc3cccc(OCc4ccc(C(=O)O)cc4)c32)cc(OC)c1 [Entry 14]
–,–,–,3130 nM,–,–,–,COc1cccc(Cn2ccc3cccc(CCc4ccc(C(=O)O)cc4)c32)c1 [Entry 15]
–,–,90 nM,43 nM,116 nM,130 nM,–,COc1cc(CC2=CCCc3cccc(CCc4ccc(C(=O)O)cc4)c32)cc(OC)c1 [Entry 3]
–,–,154 nM,16 nM,469 nM,–,–,COc1cc(CC2CCc3cccc(OCc4ccc(C(=O)O)cc4)c32)cc(OC)c1 (stereo not shown) [Entry 13]
–,–,134 nM,57 nM,27 nM,6 nM,–,O=C(O)c1ccc(CCc2cccc3c2C(Cc2cc(F)cc(F)c2)=CC3)cc1 [Entry 18]
–,–,453 nM,–,–,–,–,COc1cc(CN2CCCc3cccc(CCc4ccc(C(=O)O)cc4)c32)cc(OC)c1 [Entry 9]
> 10 µM,> 10 µM,–,–,–,–,–,COc1cccc(CC(=O)N2CCc3cccc(CCc4ccc(C(=O)O)cc4)c32)c1 [Entry 17]
–,–,195 nM,93 nM,27 nM,114 nM,–,COc1ccc(CC2=CCc3cccc(CCc4ccc(C(=O)O)cc4)c32)cc1 [Entry 9]
–,–,56 nM,23 nM,18 nM,2 nM,–,O=C(O)c1ccc(CCc2cccc3c2C(Cc2cc(Cl)cc(Cl)c2)=CC3)cc1 [Entry 10]
> 10 µM,–,–,–,–,–,> 10000 nM,COc1cccc(S(=O)(=O)N2CCc3cccc(CCc4ccc(C(=O)O)cc4)c32)c1 [Entry 20]
–,–,251 nM,562 nM,53 nM,–,–,COc1cccc(CC2=CCc3cccc(CCc4ccc(C(=O)O)cc4)c32)c1OC [Entry 6]
